Laboratory results as given in PMC4178217, “Quinoline 3-sulfonamides inhibit lactate dehydrogenase A and reverse aerobic glycolysis in cancer cells” (Cancer & Metabolism, 2013).
Where two headings read alike, the source gives them in different places.

Legend:
[1] = test system: HepG2 cells; experiment: Oxygen consumption and extracellular acidification rates, HepG2 (Seahorse); format: cell-based, human; settings: for EC50: Homo sapiens, 92 min, HepG2, 92 minutes after addition
Description: (§1) One hundred twenty thousand Snu398 or HepG2 human hepatocellular carcinoma cells per well were plated in XF24 PS or XF96 PET cell culture microplates (Seahorse Biosciences, North Billerica, MA, USA) and allowed to attach and proliferate for 18 h. Cells were equilibrated with DMEM lacking bicarbonate (Seahorse Biosciences) supplemented with glucose at 37°C for 1 h in an incubator lacking CO2. The rate of change of dissolved O2 (oxygen consumption rate, OCR) and rate of change of pH (extracellular acidification rate, ECAR) in medium immediately surrounding the cells was measured in the XF24 Analyzer (Seahorse Biosciences) per manufacturer’s instructions. Compound doses were injected into the wells at the indicated times. For dose response curves, the OCR and ECAR levels obtained in each well before compound addition were subtracted from the values obtained 92 minutes after compound addition.
(§2) For XF96 experiments breast cancer cells were seeded in DMEM without bicarbonate at 16,000/well in XF96 V3 PET plates (Seahorse Biosciences) coated with CellTak (BD Biosciences, San Jose, CA, USA). […] HepG2 cells were seeded at 16K/well in XF96 V3 PET plates and left overnight for attachment. The medium was exchanged with DMEM without bicarbonate prior to readings on the XF96 Analyzer (Seahorse Biosciences).

[2] = test system: HepG2 cells; experiment: Cell proliferation and survival, HepG2 (trypan blue, Vi-Cell); format: cell-based, human; settings: 4 to 8 days
Description: (§3) Sixty thousand Snu398 cells per well were plated in 6-well tissue culture plates in RPMI-1640 medium supplemented with 2.5% charcoal-stripped FBS (Life Technologies). Cells were allowed to attach overnight and then DMSO control or the indicated doses of LDHA inhibitor dissolved in DMSO were added directly to the wells. After 4 to 8 days of incubation in the indicated oxygen conditions, adherent cells were trypsinized, counted, and had their viability assessed by the trypan-blue exclusion method using the Vi-Cell XR Cell Viability Analyzer (Beckman Coulter, Brea, CA, USA). The same procedure was carried out for HepG2 cells, except non-charcoal-stripped FBS was used. For PARP cleavage analysis, both floating and adherent cells were collected after 24 h and the whole-cell extracts were prepared in radioimmunoprecipitation assay (RIPA) buffer (Sigma-Aldrich) supplemented with protease and phosphatase inhibitor cocktails (Sigma-Aldrich). Solubilized proteins were separated by SDS-PAGE, transferred onto nitrocellulose membrane, and detected with each specific antibody.

[3] = test system: MDA-MB-453 cells; experiment: Lactate production in normoxia/hypoxia, MDA-MB-453 (YSI analyzer); settings: Homo sapiens, MDA-MB-453, 2 h, read-out: lactate production EC50 in hypoxia
[4] = test system: Snu398 cells; experiment: Oxygen consumption and extracellular acidification rates, Snu398 (Seahorse); format: cell-based; settings: Homo sapiens, SNU-398, 92 min, Snu398, 92 minutes after addition
Description: as §1

[5] = test system: Snu398 cells; experiment: Cell proliferation and survival, Snu398 (trypan blue, Vi-Cell); format: cell-based, human
Description: as §3

[6] = test system: permeabilized HepG2 cells; experiment: Seahorse XF96 permeabilized cells (mitochondrial function); format: cell-based, human
Description: HepG2 cells were seeded overnight in DMEM, 10% FBS, at 16,000 cells/well in an XF96 V3 PET plate. The next day, the medium was removed, and the wells were rinsed and filled with mitochondrial assay solution (MAS: 70 mM sucrose, 220 mM mannitol, 10 mM KH2PO4, 5 mM MgCl2, 2 mM HEPES, 1.0 mM EGTA) containing 10 mM pyruvate/10 mM malate/4 mM ADP and 2 nM XF Plasma Membrane Permeabilizer (PMP) (Seahorse Biosciences). […]. OCR and ECAR readings were determined for three cycles (two minutes mixing, two minutes measuring) after each compound addition.

[7] = rat plasma protein equilibrium dialysis assay; format: in vitro ADME; settings: read-out: rat plasma protein binding (converted)
[8] = test system: MDA-MB-453 cells; experiment: ECAR after rotenone/antimycin, MDA-MB-453 (Seahorse XF96); format: cell-based; settings: Homo sapiens; MDA-MB-453, after rotenone/antimycin
Description: as §2

[9] = test system: Snu398 cells; experiment: Metabolomics analysis, Snu398 whole-cell extracts; format: cell-based, human; settings: Snu398 whole-cell lysates, 10 μM, 24 h
[10] = biological target: Glycogen synthase kinase 3b (Homo sapiens, UniProt P49841); experiment: Glycogen synthase kinase 3b ANT; format: biochemical; settings: antagonist; read-out: pIC50 Glycogen synthase kinase 3b ANT (converted)
Sequence of Glycogen synthase kinase 3b (P49841 whole entry): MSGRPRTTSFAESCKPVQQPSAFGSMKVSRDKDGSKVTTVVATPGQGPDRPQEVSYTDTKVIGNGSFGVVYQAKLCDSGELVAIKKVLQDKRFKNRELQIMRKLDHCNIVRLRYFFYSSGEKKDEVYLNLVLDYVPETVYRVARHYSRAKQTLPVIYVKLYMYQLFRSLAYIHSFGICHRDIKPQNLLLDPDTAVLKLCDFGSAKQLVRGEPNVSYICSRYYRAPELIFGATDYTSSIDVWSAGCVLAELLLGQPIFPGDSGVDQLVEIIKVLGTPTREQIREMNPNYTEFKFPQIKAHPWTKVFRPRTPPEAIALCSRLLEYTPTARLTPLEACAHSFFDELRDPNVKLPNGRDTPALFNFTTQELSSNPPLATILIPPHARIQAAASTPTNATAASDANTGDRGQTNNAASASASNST
Text: ANT = antagonist (pIC50), AG = agonist (pEC50). pIC50 and pEC50 are the negative logarithms10 of IC50 and EC50, respectively. Click here for file

Row | Compound | oligomycin-dependent OCR (OCROLG) ([1]; 10 μM) | oligomycin-dependent OCR (OCROLG) ([1]; 1 to 3 μM, glucose/glutamine medium) | EC50 ([1]; read-out: ECAR change EC50) | EC50 ([1]; read-out: OCR change EC50) | HepG2 survival [2] | EC50 [3] | EC50 ([4]; read-out: ECAR change EC50) | EC50 ([4]; read-out: OCR change EC50) | EC50 ([5]; Homo sapiens, SNU-398, Snu398, 4 to 8 days, read-out: viable cell number EC50) | dose sufficient to induce cell death ([5]; Snu398, with FK866) | concentrations with no changes in OCR or ECAR ([6]; permeabilized HepG2, pyruvate/malate/ADP) | doses with direct mitochondrial effects (reduced mitochondrial respiration) ([6]; permeabilized HepG2, decreased OCR, increased ECAR) | fraction unbound [7] | EC50 [8] | increase of cytosolic glycolysis intermediates [9] | IC50 [10]
1 | COc1ncc(-c2ccc3c(Nc4cc(Oc5cc(F)cc(F)c5)cc(C(=O)O)c4)c(S(=O)(=O)NC4CC4)cnc3c2)c(OC)n1 [Compound 1] | OCROLG was reduced | increased oligomycin-dependent OCR | 600 ± 100 nM | 900 ± 300 nM | did not change HepG2 survival except at the highest dose | 10000 nM | 600 ± 200 nM | 500 ± 300 nM | 2900 ± 600 nM | 3 µM | up to 3 μM | ≥ 10 µM | 0.012 | 10000 nM |  | 
2 | COc1ncc(-c2ccc3c(Nc4cc(C(=O)O)cc(C5CCCC5)c4)c(S(=O)(=O)NC4CC4)cnc3c2)c(OC)n1 [Compound 2] |  |  |  |  |  |  |  |  |  |  |  |  |  |  | ≤ 40 fold | 31600 nM
